Data reported in patent US11192849B2, “Compounds, compositions, and methods for modulating ferroptosis and treating excitotoxic disorders” (THE TRUSTEES OF COLUMBIA UNIVERSITY IN THE CITY OF NEW YORK, priority 2013, dated 2021).

Tests used:
Calu-1 cells = experiment: Erastin-induced ferroptosis in Calu-1 cells, NOX pathway inhibitors; assay type: cell-based, human
Description: Cell viability was typically assessed in 384-well format by Alamar Blue (Invitrogen) fluorescence (ex/em 530/590) measured on a Victor3 platereader (Perkin Elmer, Waltham, Mass.). In some experiments, Trypan Blue dye exclusion counting was performed using an automated cell counter (ViCell, Beckman-Coulter Inc., Brea, Calif.). Cell viability in test conditions is reported as a percentage relative to the negative control treatment.

BJeLR cells = experiment: Erastin-induced death and ROS in BJeLR cells; assay type: cell-based, human; conditions: erastin 10 μM, 6-AN 200 μM
Description: The day before the experiment, 200,000 cells/well were seeded in 6-well dishes (Corning Inc., Corning, N.Y.). The day of the experiment, cells were treated with test compounds for the indicated times, then harvested by trypsinization, resuspended in 500 μL Hanks Balanced Salt Solution (HBSS, Gibco, Invitrogen Corp., Carlsbad, Calif.) containing either H2DCFDA (25 μM), C11-BODIPY(581/591) (2 μM) or MitoSOX (5 μM) (all from Molecular Probes, Invitrogen) and incubated for 10 minutes at 37° C. in a tissue culture incubator. Cells were then resuspended in 500 μL of fresh HBSS, strained through a […] cell strainer (BD Falcon, BD Biosciences, San Jose, Calif.), and analyzed using a flow cytometer (FACSCalibur or Accuri C6, BD Biosciences), which was equipped with 488-nm laser for excitation. Data was collected from the FL1 (H2DCFDA, C11-BODIPY) or FL2 channel (MitoSOX). A minimum of 10,000 cells were analyzed per condition.
Cell viability was typically assessed in 384-well format by Alamar Blue (Invitrogen) fluorescence (ex/em 530/590) measured on a Victor3 platereader (Perkin Elmer, Waltham, Mass.). In some experiments, Trypan Blue dye exclusion counting was performed using an automated cell counter (ViCell, Beckman-Coulter Inc., Brea, Calif.). Cell viability in test conditions is reported as a percentage relative to the negative control treatment. […]

[1] = test system: mouse kidney proximal tubules; experiment: Hydroxyquinoline + iron induced cell death in isolated mouse kidney proximal tubules (LDH release); assay type: cell-based; conditions: 10 μM hydroxyquinoline and ferrous ammonium sulfate, 60 min
Description: Tubule preparation: 8-12 week old C57/BL6 female mice were euthanized with isoflurane. […] The cortices were then dissected and minced on an ice cold tile, then resuspended in additional Solution A for 8-10 min. of digestion at 37° C. followed by enrichment of proximal tubules using centrifugation on self-forming Percoll gradients as previously described for rabbit tubules.
Experimental procedures for isolated tubules: Tubules were suspended at 1.5-2.0 mg tubule protein/ml in a 95% air/5% CO2-gassed medium containing (in mM) 110 NaCl, 2.6 KCl, 25 NaHCO3, 2.4 KH2PO4, 1.25 CaCl2, 1.2 MgCl2, 1.2 MgSO4, 5 glucose, 4 sodium lactate, 0.3 alanine, 5 sodium butyrate, 2 glycine, and 1.0 mg/ml bovine gelatin (75 bloom) (Solution B). After precincubation for 15 min. at 37° C., then were then resuspended in fresh Solution B containing 2 mM heptanoic acid instead of sodium butyrate along with experimental compounds.
In addition, the efficacy of Fer-1, SRS11-92, and selected analogs was tested in a model of iron-induced cell death in freshly isolated mouse kidney proximal tubules that simulates major elements of rhabdomyolysis-induced acute kidney injury (FIG. 15C). Cell death in this model is known to involve oxidative lipid damage (Sogabe, et al., 1996, Park, et al., 2011); it was therefore believed that Fer-1 might be protective. 10 μM each of hydroxyquinoline and ferrous ammonium sulfate (HQ+Fe) were used to induce cell death, which was quantified by monitoring LDH release after 60 min. […] By implication, cell death in these models may involve, at least in part, the induction of lipid peroxidation and perhaps ferroptosis.

[2] = test system: HT-1080, BJeLR and Calu-1 cells; experiment: Modulatory profiling of cell death inhibitors against erastin; assay type: cell-based, human; conditions: erastin 10 μM, 24 hours; 10-point, 4-fold dilution series
Description: The day before the experiment, cells were seeded in black, 384-well clear bottom plates (Corning) at a density of 1,000 cells/well using a Beckman Biomek FX Workstation. All compounds (except 3-methyladenine and chloroquine, which were diluted in water) were diluted in DMSO at 250 times the final highest test concentration, and aliquoted across a 384-well plate (Greiner, Monroe, N.C.). A ten-point, 4-fold dilution series of each inhibitor in DMSO was made using a multichannel pipette. Replicates of this mother plate were stored at −20° C. […] Medium was removed from cells and replaced with 36 μL medium containing DMSO (0.1%) or erastin (10 μM final concentration). Using the Biomek FX, 4 μL were then transferred from each inhibitor daughter plate into the DMSO-containing or erastin-containing assay plates. For 3-methyladenine and chloroquine, inhibitors were prepared fresh in media at 10-fold the final concentration in the presence of DMSO or 10 μM erastin. These solutions were manually pipetted onto cells in 384-well format. Assay plates were incubated at 37° C. for 24 hours. Viability was assessed using Alamar Blue.
The modulatory effect (Me) for drug-drug interactions was computed as follows. First, plate-based background correction was performed using Alamar Blue values from empty (cell-free) wells included on each plate. Next, within each experiment, 100% viability is determined as the average Alamar Blue score for cells treated with modulator=DMSO and lethal=DMSO, and all Alamar Blue values were scaled from 0 to 1 with the DMSO×DMSO condition=1. The individual effects of each modulator and lethal (e.g. in the presence of DMSO) at all tested doses were then ascertained. […] Next, BExp was compared to the actual observed viability. […] By default, Me in DMSO-treated cells is equal to 0. […] Me values for each inhibitor-lethal drug combination were hierarchically clustered and plotted as a heatmap using the heatmaps.2 function of the gplots library in R.

[3] = test system: freshly isolated renal tubules; experiment: LDH release from hypoxic freshly isolated renal tubules; assay type: cell-based, mouse; conditions: Nec-1 50 μM, with or without glycine
Description: Six to 12 mice were used for each isolated tubule preparation, depending on the amount of material needed for particular experiments. For preparation of isolated tubules, mice were anesthetized with ketamine (100 mg/kg i.p.) and xylazine (10 mg/kg i.p.), and the kidneys were immediately removed. Type I collagenase was from Worthington Biochemical. Percoll was purchased from Amersham Biosciences. All other reagents and chemicals, including delipidated BSA, were of the highest grade available from Sigma-Aldrich. […] The cortices were then dissected and minced on an ice-cold tile and then resuspended in additional solution A for 8-10 min of digestion at 37° C., followed by enrichment of proximal tubules using centrifugation on self-forming Percoll gradients. For Nec-1 studies in renal tubules, renal cortices were dissected in ice-cold dissection solution (DS) [HBSS with 10 mmol/L glucose, 5 mmol/L glycine, 1 mmol/L alanine, 15 mmol/L Hepes (pH 7.4); osmolality, 325 mOsmol/L] and sliced into 1-mm pieces. The fragments were transferred to collagenase solution (DS with 0.1% (wt/vol) type 2 collagenase and 96 μg/mL soybean trypsin inhibitor) and digested for 30 min at 37° C. and 61×g. After digestion, the supernatant was sieved through two nylon sieves: first 250-μm pore size and then 100-μm pore size. […]

SLC7A11 = SLC7A11 mRNA levels (RT-qPCR) in HT-1080 cells; assay type: cell-based, human; conditions: 6 hours
Description: RNA was extracted using the Qiashredder and Qiagen RNeasy Mini kits (Qiagen) according to the manufacturer's protocol. 2 μg total RNA for each sample was used as input for each reverse transcription reaction, performed using the TaqMan RT kit (Applied Biosystems, Life Technologies Corp., Carlsbad, Calif.). Primer pairs were designed for target transcripts using Primer Express 2.0 (Applied Biosystems). Quantitative PCR reactions were performed using the Power SYBR Green PCR Master Mix (Applied Biosystems). Triplicate samples per condition were analyzed on an Applied Biosystems 7300 qPCR instrument using absolute quantification settings. Differences in mRNA levels compared to HPRT1 or ACTB internal reference control were computed between control and experimental conditions using the ΔΔCt method.

HT-1080 cells = experiment: Inhibition of erastin (10 μM)-induced death in HT-1080 cells (Alamar Blue); assay type: cell-based, human; conditions: erastin-treated HT-1080 cells
Summary of the method: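 HT-1080 cells (1,000/well) were treated next day with 10 μM erastin plus a compound dilution series for 24 h. Alamar Blue (10% final) was then added for 6 h and fluorescence read at ex/em 530/590.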

How did the “suppression of erastin-induced ferroptosis” value (Calu-1 cells) turn out when `NC(=O)c1ccc(N)nc1` [Compound 6-AN, 6-aminonicotinamde] was run?
Its value is “strongly suppressed”.

And the “erastin-induced cell death and ROS production” value (BJeLR cells)?
The value was “prevented cell death as well as ROS production”.

`CN1C(=O)C(Cc2c[nH]c3ccccc23)NC1=S` (stereo not shown) [necrostatin-1] was tested. Which “HQ+Fe induced lethality (LDH release)” value [1] did it give?
The value was “did not show any protection”.

What about the “modulation of erastin-induced death” value [2] of the same compound?
The value was “not consistently modulated”.

And the “LDH release from hypoxic renal tubules” value [3]?
The value was “no protection was detected”.

For `OCCS` [β-ME, β-mercaptoethanol, reference compound], which “effect on erastin/SAS-induced SLC7A11 upregulation” value (SLC7A11) is on record?
The value was “suppressed”.

And the “prevention of erastin-induced death” value (HT-1080 cells)?
The value was “strongly inhibited cell death”.
